According to ChEMBL document CHEMBL4130595, “Antitubercular Nitroimidazoles Revisited: Synthesis and Activity of the Authentic 3-Nitro Isomer of Pretomanid” (ACS Med Chem Lett, 2017):
Values after ≈ are worked out from the molar mass of the structure shown.

Assays:
Vero = test: Cytotoxicity against African green monkey Vero cells after 72 hrs by MTS/PMS assay; assay type: cell-based; conditions: Chlorocebus sabaeus
[1] = test system: Mycobacterium tuberculosis; test: Antitubercular activity against Mycobacterium tuberculosis H37Rv measured after 7 days under aerobic condition by alamar blue assay; assay type: functional; conditions: 168 h
[2] = test system: Mycobacterium tuberculosis; test: Antitubercular activity against Mycobacterium tuberculosis H37Rv ATCC 27294 incubated for 10 days under low oxygen condition followed by second incubation under aerobic condition for 28 hrs by LORA; assay type: functional

SMILES | IC50 (Vero) [µM] | MIC [1] [µM] | MIC [2] [µM]
Cc1cc(CO[C@@H]2COc3nc([N+](=O)[O-])cn3C2)ccc1OC(F)(F)F | > 128 | 0.063 (≈ 0.0235 µg/mL) | 1 (≈ 0.373 µg/mL)
O=[N+]([O-])c1cnc2n1C[C@H](OCc1ccc(OC(F)(F)F)cc1)CO2 | > 128 | > 128 | > 128
O=[N+]([O-])c1cnc2n1C[C@H](O)CO2 | > 128 | > 128 | > 128
COc1nc2ccc(Br)cc2cc1[C@@H](c1ccccc1)[C@@](O)(CCN(C)C)c1cccc2ccccc12 [BEDAQUILINE] | > 10 | 0.07 (≈ 0.0389 µg/mL) | 0.11 (≈ 0.0611 µg/mL)
NNC(=O)c1ccncc1 [ISONIAZID] | – | 0.34 (≈ 0.0466 µg/mL) | > 128
CC(=O)NC[C@H]1CN(c2ccc(N3CCOCC3)c(F)c2)C(=O)O1 [LINEZOLID] | – | 2.9 (≈ 0.978 µg/mL) | 2.8 (≈ 0.945 µg/mL)
Cc1ncc([N+](=O)[O-])n1CCO [METRONIDAZOLE] | – | > 512 | 79 (≈ 13.5 µg/mL)
COc1c(N2C[C@@H]3CCCN[C@@H]3C2)c(F)cc2c(=O)c(C(=O)O)cn(C3CC3)c12 [MOXIFLOXACIN] | – | 0.42 (≈ 0.169 µg/mL) | > 128
CO[C@H]1/C=C/O[C@@]2(C)Oc3c(C)c(O)c4c(O)c(c(/C=N/N5CCN(C)CC5)c(O)c4c3C2=O)NC(=O)/C(C)=C\C=C\[C@H](C)[C@H](O)[C@@H](C)[C@@H](O)[C@@H](C)[C@H](OC(C)=O)[C@@H]1C [RIFAMPIN] | > 100 | 0.049 (≈ 0.0403 µg/mL) | 0.64 (≈ 0.527 µg/mL)
